Patent US5319099A, “3-benzylidene-1-carbamoyl-2-pyrrolidone compounds useful as antiinflammatory agents” (Shionogi Seiyaku Kabushiki Kaisha, priority 1991, dated 1994)
Read-outs that look alike come from different tables or passages of the source.

Legend:
[1] = test system: PGE2 production from rat synovia cells (Rat SVC); assay: Inhibitory Activity on PGE2 Production from Rat Synovia Cells; type: cell-based, rat (LEW/Crj); conditions: human IL-1 β 30 U/ml, 15 hours, RIA
Protocol: Inhibitory Activity on PGE2 Production from Rat Synovia Cells
LEW/Crj rats (male, 300-350 g weight) were subjected to synovectomy. The isolated synovia cells were subcultivated under a certain condition up to a well amount of cells for the experiment. The cells were dispensed to each well of a 96-well microtiter plate at a concentration of 4×10^3 /160 μl/well and then cultivated for 72 hours in a CO2 incubator. Serial dilutions (20 μl each) of a test compound and human IL-1 β(final concentration: 30 U/ml) were added to the wells and incubated for 15 hours in a Co2 incubator. After the incubation, the supernatant was collected from each well and stored at -80° C. until PGE2 assay. […]

[2] = test system: LTB4 production from rat peritoneal cells (Rat PEC); assay: Inhibitory Activity on LTB4 Production from Rat Peritoneal Cells; type: cell-based, rat (Jcl-SD); conditions: 0.25 h, Ca-ionophore A23187 1 μM, 15 min, RIA
Protocol: Inhibitory Activity on LTB4 Production from Rat Peritoneal Cells
To each male Jcl-SD rat (300-350 g weight) was intraperitoneally administered 10 ml of Hanks' solution containing 0.1% bovine serum albumin (hereinafter referred to as BSA) and 25 U/ml of heparin. Then the ascites were collected and centrifuged (1500 rpm×5 min., at 4° C.). The resulting cell fraction (precipitation) was suspended and adjusted at […] with Hanks' solution containing 0.1% BSA. The thus obtained suspension (800 μl, 8×10^5 cells) was dispensed into polypropylene tubes and incubated at 37° C. 10 min, and successively for 10 min. after addition of serial dilutions (100 μl each) of a test sample. Next, 100 μl of Ca-ionophore A23187 (final concentration: 1 μM) was added to the resulting suspension and allowed to stand for 15 min, then the mixture was ice-cooled to terminate the reaction. The reaction mixtures were centrifuged (3000 rpm×5 min., at 4° C.) to give supernatants, which were collected and stored at -80° C. until LTB4 assay. After thawed, the LTB4 assay was performed by RIA using ^3 H--LTB4.

[3] = test system: IL-1 production in THP-1 cells; assay: Inhibitory Activity on IL-1 Production caused by The Stimulation of LPS in THP-1 Cells; type: cell-based; conditions: Homo sapiens, read-out: IC50 THP-1 IL-1
Protocol: Serial dilutions (100 μl each) of a test compound and LPS (final concentration: 10 μg/ml) were further added to each well and the plate was kept at 37° C. for 24 hours. Then, the supernatant was collected from each well and centrifuged (3000 rpm×10 min.). […]

[4] = test system: Carrageenin-Induced Paw Edema of Rat; assay: Inhibitory Activity on Carrageenin-Induced Paw-Edema of Rat; type: in vivo, rat (LEW/Crj); conditions: oral 1 hour before carrageenin, inhibitory rate 3 or 4 hours after carrageenin, read-out: ED30 Inhibitory Activities to Carrageenin-Induced Paw Edema of Rat
Protocol: Inhibitory Activity on Carrageenin-Induced Paw-Edema of Rat
Namely, male LEW/Crj rats (6-week-old, 140-170 g weight) fasted for 24 hours were used (7 to 8 rats per group).
A solution (0.1 ml) containing 1% λ-carrageenin (PICININ-A, Zushikagaku) was injected into the subplantar tissue of the right hind paw of each rat orally administered a test compound before 1 hour, to induce edema. The paw volume was calculated plethysmographically before and after the injection at an interval of 1 hour until 5 hours later. The inhibitory rate of the drug-administered group was calculated, with the vehicle group as the reference, to determine the efficacy of the test compounds by Dunnett-t assay. The anti-edema activity was indicated as ED30 calculated, by regression analysis method, based on the inhibitory rate shown 3 or 4 hours later after the administration of carrageenin.

[5] = test system: Tunica Mucosa Ventriculi of rat (stomach); assay: Inducing Activities on Injury at Tunica Mucosa of Rat (stomach); type: in vivo, rat (LEW/Crj); conditions: oral, 6 hours
Protocol: Inducing Activities on Injury at Tunica Mucosa of Rat
Sixs LEW/Crj male rats (six week old, 140-160 g weight) were used per one group. A drug was orally administered to each rat fasted for 24 hours, then six hours later each rat were bled to death under anesthesia of ether. From each rat was taken out the stomach, in which about 6 ml of physiological saline was filled, then the stomach was steeped in 1% formalin solution for 15 min. The stomach was incised along with curvatura ventriculi major and observed with an actual-microscope to see the injured condition thereof, then the number of rats injuried at stomach and the length of hemorrhage macula were determined. The degree of the injury was shown as Lesion index (mm) which was the cumulative value of the length of hemorrhage macula in each administered group.

[6] = THP-1 cells, LPS 10 μg/ml, 24 hours, RIA of IL-1 β

Structure (SMILES) | IC50 [1] [µM] | IC50 [2] [µM] | IC50 ([3]; THP-1, 24 h) [µM] | ED30 [4] [mg/kg] | Injury at Tunica Mucosa Ventriculi, Degree of Injury (Lesion index) ([5]; 3 mg/kg) [mm] | Injury at Tunica Mucosa Ventriculi, Number Occurrence/Sample ([5]; 3 mg/kg) | Injury at Tunica Mucosa Ventriculi, Degree of Injury (Lesion index) ([5]; 10 mg/kg) [mm] | Injury at Tunica Mucosa Ventriculi, Number Occurrence/Sample ([5]; 10 mg/kg) | Injury at Tunica Mucosa Ventriculi, Degree of Injury (Lesion index) ([5]; 30 mg/kg) [mm] | Injury at Tunica Mucosa Ventriculi, Number Occurrence/Sample ([5]; 30 mg/kg) | IC50 [3, 6] [µM] | Injury at Tunica Mucosa Ventriculi, Degree of Injury (Lesion index) ([5]; 100 mg/kg) [mm] | Injury at Tunica Mucosa Ventriculi, Number Occurrence/Sample ([5]; 100 mg/kg) | Injury at Tunica Mucosa Ventriculi, Degree of Injury (Lesion index) ([5]; 200 mg/kg) [mm] | Injury at Tunica Mucosa Ventriculi, Number Occurrence/Sample ([5]; 200 mg/kg) | Injury at Tunica Mucosa Ventriculi, Degree of Injury (Lesion index) ([5]; 400 mg/kg) [mm] | Injury at Tunica Mucosa Ventriculi, Number Occurrence/Sample ([5]; 400 mg/kg)
CON1CCC(=Cc2cc(C(C)(C)C)c(O)c(C(C)(C)C)c2)C1=O [Reference Compound, N-methoxy-3-(3,5-di-tert-butyl-4-hydroxybenzylidene)-2-pyrrolidone, reference compound] | 0.005 | 6 | > 100 | 3 | 4.5 ± 1.3 | 6/6 | 7.2 ± 1.2 | 6/6 | 11.2 ± 2.2 | 6/6 | – | – | – | – | – | – | –
CC(C)(C)c1cc(C=C2CCN(C(N)=O)C2=O)cc(C(C)(C)C)c1O [Ia-1, N-carbamoyl-3-(3,5-di-tert-butyl-4-hydroxybenzylidene)pyrrolidin-2-one] | 0.4 | 4 | – | 18 | – | – | 0 ± 0 | 0/6 | – | – | 20 | 0 ± 0 | 0/6 | 0 ± 0 | 0/6 | – | –
CN(O)C(=O)N1CCC(=Cc2cc(C(C)(C)C)c(O)c(C(C)(C)C)c2)C1=O [Ia-6, N-(N-hydroxy-N-methylcarbamoyl)-3-(3,5-di-tert-butyl-4-hydroxybenzylidene)pyrrolidin-2-one] | 0.009 | 3 | – | 9 | – | – | 0 ± 0 | 0/6 | 0.6 ± 0.5 | 3/6 | 34 | 1.0 ± 0.5 | 3/6 | – | – | – | –
CC(C)(C)c1cc(C=C2CCN(C(=O)NO)C2=O)cc(C(C)(C)C)c1O [Ia-4, N-(N-hydroxycarbamoyl)-3-(3,5-di-tert-butyl-4-hydroxybenzylidene)pyrrolidin-2-one] | 0.2 | 3 | – | 16 | – | – | – | – | – | – | 25 | 0 ± 0 | 0/8 | 0 ± 0 | 0/8 | 0.2 ± 0.1 | 3/8
